Columns and labels:
[1] = tested on: Rhizoctonia solani; assay: In vitro test Rhizoctonia solani (rice sheath blight/potato black scurf), radial growth on Potato Dextrose Agar; format: cell-based; conditions: 168 h, agar plate, 25° C., seven days, read-out: control compared to the untreated check
Procedure: Rhizoctonia solani (Rice Sheath Blight/Potato Black Scurf):
(§1) Compounds were dissolved in 0.3% DMSO and then added to Potato Dextrose Agar medium just prior to dispensing it into Petri dishes. 5 mL medium with compound in the desired concentration was dispensed into 60 mm sterile Petri-plates. After solidification each plate was seeded with 5 mm size mycelial disc taken form periphery of actively growing virulent culture plate. Plates were incubated in growth chambers at 25° C. temperature and 60% relative humidity for seven days and radial growth was measured.

[2] = tested on: Alternaria solani; assay: In vitro test Alternaria solani (early blight of tomato/potato), radial growth on Potato Dextrose Agar; format: cell-based; conditions: 168 h, agar plate, 25° C., seven days, read-out: control compared to the untreated check
Procedure: as §1, with “Alternaria solani (early blight of tomato/potato): Compounds” for “Compounds”

[3] = tested on: Septoria lycopersici; assay: In vitro test Septoria lycopersici (leaf spot of tomato), radial growth on Potato Dextrose Agar; format: cell-based; conditions: 168 h, agar plate, 25° C., seven days, read-out: control compared to the untreated check
Procedure: Septoria lycopersici (Leaf Spot of Tomato):
as §1, with “70%” for “60%”

[4] = tested on: Pyricularia oryzae; assay: microbe, parasite or virus in culture; format: cell-based; conditions: 168 h, read-out: control compared to the untreated check
[5] = tested on: Phakopsora pachyrhizi; assay: Greenhouse Phakopsora pachyrhizi test in soybean, preventive; format: in vivo; conditions: preventive spray on soybean plants, inoculated one day after treatment with Phakopsora pachyrhizi, read-out: control compared to the untreated check
Procedure: Phakopsora pachyrhizi Test in Soybean
Compounds were dissolved in 2% DMSO/Acetone and then mixed with water to the calibrated spray volume of 50 mL and poured into the spray bottles for further applications.
To test the preventive activity of compounds, healthy young soybean plants raised in the greenhouse were sprayed with active compound preparation at the stated application rates inside the spray cabinets using hallowcone nozzles. One day after treatment, the plants were inoculated with spore suspension containing 2.1×10^6 Phakopsora pachyrhizi inoculum. The inoculated plants were then kept in greenhouse chamber at 25° C. temperature and 90% relative humidity for disease expression.
A visual assessment of compound's performance was carried out by rating the disease severity (0-100% scale) on treated plants on 3, 7, 10 and 15 days after application. Efficacy (% control) of the compounds was calculated by comparing the disease rating in the treatment with the one of the untreated control. The sprayed plants were also assessed for compound's plant compatibility by recording symptoms like necrosis, chlorosis and stunting.

| SMILES | inhibition of growth at 300 ppm [2] [%] | inhibition of growth at 300 ppm [4] [%] | also measured |
| --- | --- | --- | --- |
| CCN(C)C=Nc1cc(C)c(S(C)(=O)=Nc2ccccc2)cc1Cl (stereo not shown) [Compound 17] | > 70 | – | inhibition of growth at 300 ppm [1]: > 70%; inhibition of growth at 300 ppm [3]: > 70% |
| CCN(C)C=Nc1cc(C)c(Oc2cccc(S(C)(=O)=NCC3CC3)c2)cc1Cl (stereo not shown) [Compound 18] | – | > 70 | – |
| CCN=S(=O)(CC1CC1)c1cccc(Oc2cc(Cl)c(N=CN(C)CC)cc2C)c1 (stereo not shown) [Compound 20] | – | – | inhibition of growth at 300 ppm [3]: > 70% |
| CCN(C)C=Nc1cc(C)c(S(C)(=O)=Nc2cccc(OC)c2)cc1Cl (stereo not shown) [Compound 24] | – | > 70 | – |
| CCN(C)C=Nc1cc(C)c(S(C)(=O)=NC(=O)c2ccccc2)cc1Cl (stereo not shown) [Compound 28] | – | > 70 | – |
| CCN(C)C=Nc1cc(C)c(S(C)(=O)=NC(=O)c2ccc(F)c(Cl)c2)cc1Cl (stereo not shown) [Compound 29] | – | > 70 | – |
| CCN(C)C=Nc1cc(C)c(S(C)(=O)=NC(=O)c2cccc(C(F)(F)F)c2)cc1Cl (stereo not shown) [Compound 30] | – | > 70 | – |
| CCN(C)C=Nc1cc(C)c(S(C)(=O)=NC(=O)c2cc(C(F)(F)F)cc(C(F)(F)F)c2)cc1Cl (stereo not shown) [Compound 31] | – | > 70 | pest or weed control at 500 ppm [5]: > 70% |
| CCN(C)C=Nc1cc(C)c(S(C)(=O)=NC(=O)c2ccc(F)c(F)c2)cc1Cl (stereo not shown) [Compound 34] | – | > 70 | pest or weed control at 500 ppm [5]: > 70% |
| CCN(C)C=Nc1cc(C)c(S(C)(=O)=Nc2cccc(C(F)(F)F)c2)cc1Cl (stereo not shown) [Compound 36] | – | > 70 | – |
| CCN(C)C=Nc1cc(C)c(S(C)(=O)=NC(=O)c2cccc(Cl)c2)cc1Cl (stereo not shown) [Compound 40] | – | > 70 | – |
| CCN(C)C=Nc1cc(C)c(S(C)(=O)=Nc2ccc(Cl)c(C(F)(F)F)c2)cc1Cl (stereo not shown) [Compound 41] | – | > 70 | – |
| CCN(C)C=Nc1cc(C)c(S(C)(=O)=Nc2cccc(S(F)(F)(F)(F)F)c2)cc1Cl (stereo not shown) [Compound 45] | > 70 | – | inhibition of growth at 300 ppm [3]: > 70% |
| CCN(C)C=Nc1cc(Br)c(N=S(C)(=O)c2ccccc2)nc1C (stereo not shown) [Compound 47] | – | > 70 | pest or weed control at 500 ppm [5]: > 70% |
| CCN(C)C=Nc1cc(C)c(S(=O)(CC)=NC(=O)c2cccc(C(F)(F)F)c2)cc1Cl (stereo not shown) [Compound 51] | > 70 | > 70 | – |
| CCN(C)C=Nc1cc(C)c(S(=O)(CC)=NC(=O)c2cccc(F)c2)cc1Cl (stereo not shown) [Compound 52] | > 70 | – | – |
| CCN(C)C=Nc1cc(C)c(S(=O)(CC)=NC(=O)c2cccc(OC(F)(F)F)c2)cc1Cl (stereo not shown) [Compound 53] | > 70 | > 70 | – |
| CCN=S(C)(=O)c1cccc(Oc2cc(C)c(N=CN(C)CC)cc2C)c1 (stereo not shown) [Compound 54] | – | > 70 | – |
| CCN(C)C=Nc1cc(C)c(N=S(=O)(CCC(C)C)c2ccccc2)cc1C (stereo not shown) [Compound 55] | – | > 70 | – |
| CCN(C)C=Nc1cc(Br)c(N=S(C)(=O)c2ccc(Br)cc2)nc1C (stereo not shown) [Compound 56] | – | > 70 | – |
| CCN(C)C=Nc1cc(Br)c(N=S(=O)(CCC(C)C)c2ccccc2)nc1C (stereo not shown) [Compound 57] | – | > 70 | – |
| CCN(C)C=Nc1cc(C)c(S(=O)(CC)=NC(=O)c2ccccc2)cc1Cl (stereo not shown) [Compound 58] | – | > 70 | – |
| CCN(C)C=Nc1cc(C)c(S(=O)(CC)=NC(=O)c2nn(C)cc2C(F)F)cc1Cl (stereo not shown) [Compound 59] | – | > 70 | – |
| CCN(C)C=Nc1cc(C)c(S(=O)(CC)=Nc2cccc(C(F)(F)F)c2)cc1Cl (stereo not shown) [Compound 60] | – | > 70 | pest or weed control at 500 ppm [5]: > 70% |
| CCN(C)C=Nc1cc(C)c(S(=O)(CC)=Nc2cccc(OC(F)(F)F)c2)cc1Cl (stereo not shown) [Compound 61] | > 70 | – | inhibition of growth at 300 ppm [3]: > 70%; pest or weed control at 500 ppm [5]: > 70% |

| SMILES | inhibition of growth at 300 ppm [2] [%] | inhibition of growth at 300 ppm [4] [%] | also measured |
| --- | --- | --- | --- |
| CCN(C)C=Nc1cc(C)c(S(=O)(CC)=Nc2cc(F)c(F)c(F)c2)cc1Cl (stereo not shown) [Compound 62] | > 70 | > 70 | – |
| CCN(C)C=Nc1cc(C)c(S(=O)(CC)=Nc2ccccc2)cc1Cl (stereo not shown) [Compound 64] | > 70 | – | – |
| CCN(C)C=Nc1cc(C)c(N=S(=O)(c2ccccc2)C(C)C)cc1C (stereo not shown) [Compound 66] | > 70 | – | inhibition of growth at 300 ppm [1]: > 70% |
| CCN(C)C=Nc1cc(Br)c(Oc2cccc(S(C)(=O)=NCC3CCC3)c2)nc1C (stereo not shown) [Compound 69] | – | > 70 | – |
| CCN(C)C=Nc1cc(C)c(Oc2cccc(S(C)(=O)=NCC3CCC3)c2)cc1C (stereo not shown) [Compound 71] | – | > 70 | – |
| CCN(C)C=Nc1cc(C)c(S(=O)(CC(C)C)=NC(=O)c2ccc(F)c(Cl)c2)cc1Cl (stereo not shown) [Compound 72] | – | > 70 | – |
| CCN(C)C=Nc1cc(C)c(N=S(=O)(c2cccc(OC)c2)C(C)C)cc1C (stereo not shown) [Compound 75] | – | > 70 | pest or weed control at 500 ppm [5]: > 70% |
| CCN(C)C=Nc1cc(Br)c(N=S(=O)(c2cccc(OC)c2)C(C)C)nc1C (stereo not shown) [Compound 78] | > 70 | – | – |
| CCN(C)C=Nc1cc(C)c(S(=O)(CC(C)C)=NCc2ccc(F)c(Cl)c2)cc1Cl (stereo not shown) [Compound 100] | – | > 70 | – |
| CCN(C)C=Nc1cc(C)c(S(=O)(CC(C)C)=NCc2cccc(Cl)c2)cc1Cl (stereo not shown) [Compound 101] | > 70 | – | pest or weed control at 500 ppm [5]: > 70% |
| CCN(C)C=Nc1cc(C)c(S(=O)(CC(C)C)=NCc2cccc(C(F)(F)F)c2)cc1Cl (stereo not shown) [Compound 102] | > 70 | > 70 | – |
| CCN(C)C=Nc1cc(Br)c(N=S(=O)(CC2CC2)c2cccc(F)c2)nc1C (stereo not shown) [Compound 106] | – | > 70 | pest or weed control at 500 ppm [5]: > 70% |
| CCN(C)C=Nc1cc(C)c(S(=O)(CC(C)C)=Nc2ccc(N(C)C)cc2)cc1Cl (stereo not shown) [Compound 110] | – | > 70 | – |
| CCN(C)C=Nc1cc(C)c(S(=O)(CC(C)C)=Nc2ccc(OC)cc2)cc1Cl (stereo not shown) [Compound 111] | – | > 70 | – |
| CCN(C)C=Nc1cc(C)c(Oc2cccc(S(C)(=O)=NCC#N)c2)cc1C (stereo not shown) [Compound 125] | > 70 | > 70 | – |
| CCN(C)C=Nc1cc(C)c(Oc2ccc(S(C)(=O)=NC#N)cc2)cc1Cl (stereo not shown) [Compound 129] | – | – | pest or weed control at 500 ppm [5]: > 70% |
| CCN=S(C)(=O)c1ccc(Cc2cc(C)c(N=CN(C)CC)cc2C)cc1 (stereo not shown) [Compound 130] | > 70 | – | – |
| CCN(C)C=Nc1cc(C)c(Cc2ccc(S(C)(=O)=NCC3CC3)cc2)cc1C (stereo not shown) [Compound 131] | > 70 | – | – |
| CCN(C)C=Nc1cc(C)c(Cc2ccccc2S(C)(=N)=O)cc1C (stereo not shown) [Compound 136] | – | > 70 | – |
| CCN(C)C=Nc1cc(C)c(Cc2ccccc2S(C)(=O)=NC)cc1C (stereo not shown) [Compound 137] | – | > 70 | – |
| CCN(C)C=Nc1cc(C)c(Cc2ccccc2S(C)(=O)=NCC2CC2)cc1C (stereo not shown) [Compound 138] | – | > 70 | – |
| CCN(C)C=Nc1cc(C)c(Nc2ccc(S(C)(=O)=NCC3CC3)cc2)cc1C (stereo not shown) [Compound 139] | > 70 | – | inhibition of growth at 300 ppm [3]: > 70% |
| CCN(C)C=Nc1cc(C)c(Oc2cccc(S(=N)(=O)C(F)(F)F)c2)cc1C (stereo not shown) [Compound 148] | – | > 70 | – |
| CCN(C)C=Nc1cc(C)c(Oc2cccc(S(=O)(=NC)C(F)(F)F)c2)cc1C (stereo not shown) [Compound 151] | – | > 70 | – |
| CCN(C)C=Nc1cc(C)c(Oc2ccccc2S(=O)(=NCC2CC2)C(F)(F)F)cc1Cl (stereo not shown) [Compound 152] | – | > 70 | pest or weed control at 500 ppm [5]: > 70% |

— US20200148635A1 (priority 2017, published 2020)
